# Experimental data taken from US12187728B2 (Raze Therapeutics, Inc., priority 2015, dated 2025).
# Biological target: T1, Human MTHFD2 (Homo sapiens, UniProt P13995)
# T1 construct: residues 36-350 in Uniport ID P13995; His6 (N); made in house; host or cells: E. coli
# T1 sequence (P13995 36-350): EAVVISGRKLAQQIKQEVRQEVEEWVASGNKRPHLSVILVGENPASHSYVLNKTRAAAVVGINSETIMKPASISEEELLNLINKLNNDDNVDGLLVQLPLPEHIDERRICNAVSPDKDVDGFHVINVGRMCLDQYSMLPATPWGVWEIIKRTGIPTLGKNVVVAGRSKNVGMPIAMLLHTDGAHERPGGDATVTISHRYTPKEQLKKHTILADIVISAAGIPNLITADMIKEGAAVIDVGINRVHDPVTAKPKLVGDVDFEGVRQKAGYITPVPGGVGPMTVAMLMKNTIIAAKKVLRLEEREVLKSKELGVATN
# Assay: MTHFD2 Activity Assay (dehydrogenase activity, diaphorase/resazurin coupled fluorescence)
# Type: biochemical
# Settings: inhibitory activity (IC50 and/or binding constant); 0.2 nM MTHFD2, 11 concentrations
# In short: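 Steps: compound + 0.2 nM enzyme, 15 min, pH 8.0 Hepes buffer; add 70 μM CH2-THF, 1 mM NAD+, 100 μM resazurin, diaphorase; 30 min; quench with EDTA; read fluorescence. Data normalized to DMSO (100%) and no-enzyme (0%) wells.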
row,Compound,IC50
1,"COc1cccc2[nH]c(Cn3c(=O)c4c(nc(Nc5ccncc5)n4C)n(C)c3=O)cc12 [Example 370, 1-((4-methoxy-1H-indol-2-yl)methyl)-3,7-dimethyl-8-(pyridin-4-ylamino)-1H-purine-2,6(3H,7H)-dione]",10 to 1000 nM
2,"Cn1c(N2CCCC(N)C2)nc2c1c(=O)n(Cc1cc3c(Cl)cccc3[nH]1)c(=O)n2C (centres unmarked) [Example 371, 8-(3-aminopiperidin-1-yl)-1-((4-chloro-1H-indol-2-yl)methyl)-3,7-dimethyl-1H-purine-2,6(3H,7H)-dione]",10 to 1000 nM
3,"Cn1c(Nc2ccncc2)nc2c1c(=O)n(Cc1cc3cccc(Cl)c3[nH]1)c(=O)n2C [Example 373, 1-[(7-chloro-1H-indol-2-yl)methyl]-3,7-dimethyl-8-(4-pyridylamino)purine-2,6-dione]",10 to 1000 nM
4,"Cn1c(Nc2ccncc2)nc2c1c(=O)n(Cc1cc3c(-c4ccccc4)cccc3[nH]1)c(=O)n2C [Example 374, 3,7-dimethyl-1-((4-phenyl-1H-indol-2-yl)methyl)-8-(pyridin-4-ylamino)-1H-purine-2,6(3H,7H)-dione]",> 10000 nM
5,"Cn1c(Nc2ccncc2)nc2c1c(=O)n(Cc1ccc3ccccc3c1Cl)c(=O)n2C [Example 375, 1-((1-chloronaphthalen-2-yl)methyl)-3,7-dimethyl-8-(pyridin-4-ylamino)-1H-purine-2,6(3H,7H)-dione]",10 to 1000 nM
6,Cn1c(N2CCC(N)C2)nc2c1c(=O)n(Cc1cc3c(Cl)cccc3[nH]1)c(=O)n2C (centres unmarked) [Example 376],10 to 1000 nM
7,"Cc1ccc(Nc2nc3c(c(=O)n(Cc4cc5c(Cl)cccc5[nH]4)c(=O)n3C)n2C)nc1CCC(=O)O [Example 377, 3-(6-(1-((4-chloro-1H-indol-2-yl)methyl)-3,7-dimethyl-2,6-dioxo-2,3,6,7-tetrahydro-1H-purin-8-ylamino)-3-methylpyridin-2-yl)propanoic acid]",10 to 1000 nM
8,"Cn1c(Nc2ccnc(CCC(N)=O)n2)nc2c1c(=O)n(Cc1cc3c(Cl)cccc3[nH]1)c(=O)n2C [Example 378, 3-(4-(1-((4-chloro-1H-indol-2-yl)methyl)-3,7-dimethyl-2,6-dioxo-2,3,6,7-tetrahydro-1H-purin-8-ylamino)pyrimidin-2-yl)propanamide]",10 to 1000 nM
9,"COc1ccc(Nc2nc3c(c(=O)n(Cc4cc5c(Cl)cccc5[nH]4)c(=O)n3C)n2C)cn1 [Example 380, 1-((4-chloro-1H-indol-2-yl)methyl)-8-(6-methoxypyridin-3-ylamino)-3,7-dimethyl-1H-purine-2,6(3H,7H)-dione]",10 to 1000 nM
10,"Cn1c(Nc2ccc(Cl)nc2)nc2c1c(=O)n(Cc1cc3c(Cl)cccc3[nH]1)c(=O)n2C [Example 381, 1-((4-chloro-1H-indol-2-yl)methyl)-8-(6-chloropyridin-3-ylamino)-3,7-dimethyl-1H-purine-2,6(3H,7H)-dione]",10 to 1000 nM
11,"Cn1c(Nc2ccc(C(F)(F)F)nc2)nc2c1c(=O)n(Cc1cc3c(Cl)cccc3[nH]1)c(=O)n2C [Example 382, 1-((4-chloro-1H-indol-2-yl)methyl)-3,7-dimethyl-8-(6-(trifluoromethyl)pyridin-3-ylamino)-1H-purine-2,6(3H,7H)-dione]",10 to 1000 nM
12,"Cc1ccc(Nc2nc3c(c(=O)n(Cc4cc5c(Cl)cccc5[nH]4)c(=O)n3C)n2C)cn1 [Example 383, 1-((4-chloro-1H-indol-2-yl)methyl)-3,7-dimethyl-8-(6-methylpyridin-3-ylamino)-1H-purine-2,6(3H,7H)-dione]",10 to 1000 nM
13,"Cn1c(Nc2ccc(F)nc2)nc2c1c(=O)n(Cc1cc3c(Cl)cccc3[nH]1)c(=O)n2C [Example 384, 1-((4-chloro-1H-indol-2-yl)methyl)-8-(6-fluoropyridin-3-ylamino)-3,7-dimethyl-1H-purine-2,6(3H,7H)-dione]",10 to 1000 nM
14,"Cn1c(CCN)nc2c1c(=O)n(Cc1cc3c(Cl)cccc3[nH]1)c(=O)n2C [Example 386, 8-(2-aminoethyl)-1-((4-chloro-1H-indol-2-yl)methyl)-3,7-dimethyl-1H-purine-2,6(3H,7H)-dione]",10 to 1000 nM
